Where “and” joins values, the source holds several entries; their conditions need not be identical. Identical values can stand only once.
**Q.** Which melting point does the source give for `CC(C)c1ccc(-n2ccc(-c3ccc(C(=O)O)cc3)c2)cc1` [Compound 106, 4-[1-(4-Isopropyl-phenyl)-1H-pyrrol-3-yl]-benzoic acid] here?
**A.** The melting point was 240 to 243 °C.

**Q.** Which melting point does the source give for `O=C(O)c1cccc(-c2ncn(-c3cc(C(F)(F)F)cc(C(F)(F)F)c3)n2)c1` [Compound 20, 3-[1-(3,5-Bis-trifluoromethyl-phenyl)-1H-[1,2,4]triazol-3-yl]-benzoic acid] here?
**A.** The melting point was 271 to 273 °C.

**Q.** Which melting point does the source give for `O=C(O)c1cccc(-c2ncn(-c3cccc(F)c3)n2)c1` [Compound 29, 3-[1-(3-Fluoro-phenyl)-1H-[1,2,4]triazol-3-yl]-benzoic acid] here?
**A.** The melting point was 266 to 268 °C.

**Q.** With `O=C(O)c1cccc(-c2ccn(-c3cccc(OCc4ccccc4)c3)c2)c1` [Compound 246, 3-[1-(3-Benzyloxy-phenyl)-1H-pyrrol-3-yl]-benzoic acid] as the compound, how does the melting point read?
**A.** Its melting point is 142 to 144 °C.

**Q.** Which melting point does the source give for `CC(C)c1ccc(-n2cnc(-c3cccc(C(=O)O)c3)n2)cc1` [Compound 15, 3-[1-(4-Isopropyl-phenyl)-1H-[1,2,4]triazol-3-yl]-benzoic acid] here?
**A.** Its melting point is 173 to 175 °C.

**Q.** Which melting point does the source give for `N#Cc1cccc(-c2ccn(-c3ccc4c(c3)OCO4)n2)c1` [Compound 60, 3-(1-Benzo[1,3]dioxol-5-yl-1H-pyrazol-3-yl)-benzonitrile] here?
**A.** The melting point was 144 to 147 °C.

**Q.** For `O=C(O)c1cccc(-c2ncn(-c3ccc(F)cc3F)n2)c1` [Compound 16, 3-[1-(2,4-Difluoro-phenyl)-1H-[1,2,4]triazol-3-yl]-benzoic acid], which melting point is on record?
**A.** Its melting point is 290 to 291 °C and 290 to 292 °C.

**Q.** For `O=C(O)c1ccc(-n2cc(-c3ccc(F)cc3F)nn2)cc1` [Compound 268, 4-[4-(2,4-Difluoro-phenyl)-[1,2,3]triazol-1-yl]-benzoic acid], which melting point is on record?
**A.** Its melting point is 312 to 313 °C.

**Q.** With `CC(C)c1ccc(-c2nn(-c3ccc(C(=O)O)cc3)c(=O)s2)cc1` [Compound 281, 4-[5-(4-isopropylphenyl)-2-oxo-1,3,4-thiadiazol-3(2H)-yl]benzoic acid] as the compound, how does the melting point read?
**A.** Its melting point is 205 to 208 °C.

**Q.** For `CCOc1ccc(-c2cn(-c3ccc(C(=O)O)cc3)nn2)cc1` [Compound 273, 4-[4-(4-Ethoxy-phenyl)-[1,2,3]triazol-1-yl]-benzoic acid], which melting point is on record?
**A.** Its melting point is 310 to 311 °C.

**Q.** For `CC(C)c1ccc(-c2nn(-c3cccc(C(=O)O)c3)c(=S)o2)cc1` [Compound 283, 3-[5-(4-Isopropyl-phenyl)-2-thioxo-[1,3,4]oxadiazol-3-yl]-benzoic acid], which melting point is on record?
**A.** Its melting point is 215 to 217 °C.

**Q.** For `COc1ccc(-c2cnn(-c3cccc(C(=O)O)c3)c2)cc1` [Compound 47, 3-[4-(4-Methoxy-phenyl)-pyrazol-1-yl]-benzoic acid], which melting point is on record?
**A.** Its melting point is 238 to 239 °C.

**Q.** With `CC(=O)c1ccc(-n2ccc(-c3cccc(C(=O)O)c3)n2)cc1` [Compound 255, 3-[1-(4-Acetyl-phenyl)-1H-pyrazol-3-yl]-benzoic acid] as the compound, how does the melting point read?
**A.** Its melting point is 215 to 216 °C.

**Q.** With `O=C(O)c1ccc(-c2cnn(-c3cccc(OC(F)F)c3)c2)cc1` [Compound 173] as the compound, how does the melting point read?
**A.** The melting point was 255 to 257 °C.

**Q.** Which melting point does the source give for `O=C(O)c1cccc(-n2ncc3c2CCc2ccccc2-3)c1` [Compound 135, 3-(4,5-Dihydro-benzo[e]indazol-3-yl)-benzoic acid] here?
**A.** Its melting point is 273 to 275 °C.

**Q.** Which melting point does the source give for `O=C(O)c1ccc(-n2cc(-c3ccc(Cl)cc3)nn2)cc1` [Compound 269, 4-[4-(4-Chloro-phenyl)-[1,2,3]triazol-1-yl]-benzoic acid] here?
**A.** Its melting point is 313 to 314 °C.

**Q.** Which melting point does the source give for `Cc1ccc(-n2ccc(-c3cccc(C(=O)O)c3)n2)cc1` [Compound 166, 3-(1-p-Tolyl-1H-pyrazol-3-yl)-benzoic acid] here?
**A.** The melting point was 192 to 193 °C.

**Q.** Which melting point does the source give for `O=C(O)c1ccc(-n2cc(-c3ccc(Cl)cc3)cn2)cc1` [Compound 52, 4-[4-(4-Chloro-phenyl)-pyrazol-1-yl]-benzoic acid] here?
**A.** The melting point was 300 to 302 °C.

**Q.** For `COc1ccccc1-n1ccc(-c2ccc(C(=O)O)cc2)c1` [Compound 193], which melting point is on record?
**A.** Its melting point is 200 to 202 °C.

**Q.** Which melting point does the source give for `O=C(O)c1cccc(-c2ncn(-c3ccc(-c4ccc(F)cc4)cc3)n2)c1` [Compound 32, 3-[1-(4′-Fluoro-biphenyl-4-yl)-1H-[1,2,4]triazol-3-yl]-benzoic acid] here?
**A.** Its melting point is 272 to 275 °C.

**Q.** Which melting point does the source give for `O=C(O)c1cccc(-c2ncn(-c3ccc(-c4cc5ccccc5o4)cc3)n2)c1` [Compound 26, 3-[1-(4-Benzofuran-2-yl-phenyl)-1H-[1,2,4]triazol-3-yl]-benzoic acid] here?
**A.** The melting point was 293 to 295 °C.

**Q.** With `Cc1ccc(-c2cnn(-c3cccc(C(=O)O)c3)c2)cc1` [Compound 48, 3-(4-p-Tolyl-pyrazol-1-yl)-benzoic acid] as the compound, how does the melting point read?
**A.** The melting point was 208 to 209 °C.

**Q.** Which melting point does the source give for `O=C(O)c1ccc(-c2ccn(-c3ccc(OC(F)(F)F)cc3)c2)cc1` [Compound 131, 4-[1-(4-Trifluoromethoxy-phenyl)-1H-pyrrol-3-yl]-benzoic acid] here?
**A.** Its melting point is 318 to 320 °C.

**Q.** With `O=C(O)c1ccc(-c2ccn(-c3cccc(Cl)c3)c2)cc1` [Compound 243, 4-[1-(3-Chloro-phenyl)-1H-pyrrol-3-yl]-benzoic acid] as the compound, how does the melting point read?
**A.** The melting point was 199 to 201 °C.

**Q.** Which melting point does the source give for `COc1ccc(-c2cnn(-c3ccc(C(=O)O)cc3)c2)cc1` [Compound 50, 4-[4-(4-Methoxy-phenyl)-pyrazol-1-yl]-benzoic acid] here?
**A.** Its melting point is 289 to 290 °C.

**Q.** For `Cc1ccccc1-n1nc(-c2cccc(C(=O)O)c2)[nH]c1=O` [Compound 41, 3-(5-Oxo-1-o-tolyl-4,5-dihydro-1H-[1,2,4]triazol-3-yl)-benzoic acid], which melting point is on record?
**A.** Its melting point is greater than 310 °C.

**Q.** With `O=C(O)c1ccc(-n2cc(-c3cccc(O)c3)cn2)cc1` [Compound 206, 4-[4-(3-Hydroxy-phenyl)-pyrazol-1-yl]-benzoic acid] as the compound, how does the melting point read?
**A.** Its melting point is 273 to 275 °C.

**Q.** With `COc1ccc(-c2ccn(-c3cccc(C(=O)O)c3)n2)cc1` [Compound 81, 3-[3-(4-Methoxy-phenyl)-pyrazol-1-yl]-benzoic acid] as the compound, how does the melting point read?
**A.** The melting point was 210 to 211 °C.

**Q.** With `O=C(O)c1cccc(-c2cnn(-c3ccc(Cl)c(Cl)c3)c2)c1` [Compound 232, 3-[1-(3,4-Dichloro-phenyl)-1H-pyrazol-4-yl]-benzoic acid] as the compound, how does the melting point read?
**A.** The melting point was 135 to 138 °C.

**Q.** Which melting point does the source give for `COc1cccc(-n2cc(-c3ccc(C(=O)O)cc3)cn2)c1` [Compound 171, 4-[1-(3-Methoxy-phenyl)-1H-pyrazol-4-yl]-benzoic acid] here?
**A.** Its melting point is 211 to 212 °C.

**Q.** For `Cc1cccc(-c2cnn(-c3cccc(C(=O)O)c3)c2)c1` [Compound 90, 3-(4-m-Tolyl-pyrazol-1-yl)-benzoic acid], which melting point is on record?
**A.** Its melting point is 181 to 182 °C.

**Q.** For `O=C(O)c1cccc(-c2ccn(-c3cc(F)ccc3F)c2)c1` [Compound 242, 3-[1-(2,5-Difluoro-phenyl)-1H-pyrrol-3-yl]-benzoic acid], which melting point is on record?
**A.** The melting point was 193 to 194 °C.

**Q.** With `N#Cc1cccc(-c2ccn(-c3ccc(F)c(F)c3)n2)c1` [Compound 63, 3-[1-(3,4-Difluoro-phenyl)-1H-pyrazol-3-yl]-benzonitrile] as the compound, how does the melting point read?
**A.** Its melting point is 142 to 145 °C.

**Q.** Which melting point does the source give for `COc1ccc(-n2cc(-c3cc(C(=O)O)ccc3[N+](=O)[O-])cn2)cc1` [Compound 55, 3-[1-(4-Methoxy-phenyl)-1H-pyrazol-4-yl]-4-nitro-benzoic acid] here?
**A.** The melting point was 249 to 250 °C.

**Q.** With `O=C(O)c1cccc(-n2cc(-c3ccncn3)cn2)c1` [Compound 117, 3-(4-Pyrimidin-4-yl-pyrazol-1-yl)-benzoic acid] as the compound, how does the melting point read?
**A.** Its melting point is 297 to 299 °C.

**Q.** For `O=C(O)c1cccc(-n2cc(-c3cccc(Cl)c3)cn2)c1` [Compound 210, 3-[4-(3-Chloro-phenyl)-pyrazol-1-yl]-benzoic acid], which melting point is on record?
**A.** Its melting point is 178 to 180 °C.

**Q.** With `O=C(O)c1ccc(-c2cnn(-c3ccc(OC(F)(F)F)cc3)c2)cc1` [Compound 134, 4-[1-(4-Trifluoromethoxy-phenyl)-1H-pyrazol-4-yl]-benzoic acid] as the compound, how does the melting point read?
**A.** Its melting point is 246 to 248 °C.

**Q.** For `Cc1ccc(-n2ccc(-c3ccc(C(=O)O)cc3)c2)cc1F` [Compound 244, 4-[1-(3-Fluoro-4-methyl-phenyl)-1H-pyrrol-3-yl]-benzoic acid], which melting point is on record?
**A.** The melting point was 264 to 268 °C.

**Q.** For `N#Cc1cccc(-c2ccn(-c3ccccc3)n2)c1` [Compound 57, 3-(1-Phenyl-1H-pyrazol-3-yl)-benzonitrile], which melting point is on record?
**A.** Its melting point is 78 to 80 °C.

**Q.** With `O=C(O)c1cccc(-n2ccc(-c3cccc(F)c3)n2)c1` [Compound 93, 3-[3-(3-Fluoro-phenyl)-pyrazol-1-yl]-benzoic acid] as the compound, how does the melting point read?
**A.** The melting point was 173 to 174 °C.

**Q.** With `O=C(O)c1ccc(-c2cnn(-c3ccc(Cl)c(Cl)c3)c2)cc1` [Compound 233, 4-[1-(3,4-Dichloro-phenyl)-1H-pyrazol-4-yl]-benzoic acid] as the compound, how does the melting point read?
**A.** Its melting point is 286 to 289 °C.

**Q.** For `CC(C)c1ccc(-c2nn(-c3ccc(C(=O)O)cc3)c(=O)o2)cc1` [Compound 277, 4-[5-(4-Isopropyl-phenyl)-2-oxo-[1,3,4]oxadiazol-3-yl]-benzoic acid], which melting point is on record?
**A.** Its melting point is 252 to 254 °C.

**Q.** With `O=C(O)c1cccc(-n2cc(-c3cnccn3)cn2)c1` [Compound 119, 3-(4-Pyrazin-2-yl-pyrazol-1-yl)-benzoic acid] as the compound, how does the melting point read?
**A.** The melting point was 310 to 311 °C.

**Q.** With `O=C(O)c1ccc(-c2ccn(-c3ccc(Cl)cc3)c2)cc1` [Compound 196, 4-[1-(4-Chloro-phenyl)-1H-pyrrol-3-yl]-benzoic acid] as the compound, how does the melting point read?
**A.** The melting point was greater than 350 °C.

**Q.** For `CC(C)c1ccc(-n2ccc(-c3cccc(C(=O)O)c3)c2)cc1` [Compound 6, 3-[1-(4-Isopropyl-phenyl)-1H-pyrrol-3-yl]-benzoic acid], which melting point is on record?
**A.** The melting point was 210 to 215 °C.

**Q.** For `COc1cccc(-c2cn(-c3ccc(C(=O)O)cc3)nn2)c1` [Compound 204, 4-[4-(3-Methoxyphenyl)-[1,2,3]triazol-1-yl]benzoic acid], which melting point is on record?
**A.** Its melting point is 276 to 277 °C.

**Q.** Which melting point does the source give for `CC(C)c1ccc(-c2ccn(-c3cccc(C(=O)O)c3)n2)cc1` [Compound 5, 3-[3-(4-Isopropyl-phenyl)-pyrazol-1-yl]-benzoic acid] here?
**A.** The melting point was 215 to 216 °C.

**Q.** For `O=C(O)c1ccc(-c2cnn(-c3ccc(F)cc3)c2)cc1` [Compound 182, 4-[1-(4-Fluoro-phenyl)-1H-pyrazol-4-yl]-benzoic acid], which melting point is on record?
**A.** The melting point was 266 to 268 °C.

**Q.** With `O=C(O)c1cccc(-n2cc3c(n2)-c2ccccc2OC3)c1` [Compound 144, 3-(4H-Chromeno[4,3-c]pyrazol-2-yl)-benzoic acid] as the compound, how does the melting point read?
**A.** Its melting point is 227 to 228 °C.

**Q.** With `O=C(O)c1ccc(-n2cc(-c3ccc(C(F)(F)F)cc3)nn2)cc1` [Compound 202, 4-[4-(4-Trifluoromethyl-phenyl)-[1,2,3]triazol-1-yl]-benzoic acid] as the compound, how does the melting point read?
**A.** The melting point was 305 to 306 °C.

From patent US9051342B2 (priority 2004, dated 2015)
